Laboratory results taken from paper PMC9220410, “Antiamoebic Properties of Laboratory and Clinically Used Drugs against Naegleria fowleri and Balamuthia mandrillaris” (Antibiotics, 2022).
Read-outs that look alike come from different tables or passages of the source.

Key:
N. fowleri cysts = assay: Excystation assay, N. fowleri cysts; format: cell-based, Naegleria fowleri; settings: for inhibition at 100 µM: Naegleria fowleri, read-out: Inhibition of excystation of N. fowleri
Method: (§1) Briefly, 5 × 10^5 amoebae cysts (N. fowleri and B. mandrillaris cells) were incubated with 100 μM drugs and/or solvent in 24-well plates containing RPMI-1640 on HeLa monolayers at 37 °C and 5% CO2 until around 75% of the cysts in RPMI-1640 alone have excysted. The RPMI-1640 alone was used as a negative control while DMSO and ethanol were used as a solvent control and 100 μM miltefosine was used as positive control. Live trophozoites (amoebae that excysted) were then quantified by counting live (unstained) cells, after addition of 0.1% Trypan blue to each well, using a haemocytometer. Percentage inhibition is defined as: [(Number of trophozoites in untreated well − Number of trophozoites in treated well)/Number of trophozoites in untreated well)] × 100. The data are representative of the mean ± standard error of several independent experiments performed in duplicate.
(§2) Figure 3 (A) Inhibition of excystation of N. fowleri cysts. N. fowleri cysts were incubated with 100 μM drugs and/or solvent in 24-well plates containing RPMI-1640 on HeLa monolayers for 24 h and number of viable trophozoites were then enumerated. Percentage inhibition of excystation was calculated by: [((RPMI trophozoite cell count − trophozoite cell count for sample)/RPMI trophozoite cell count) × 100)]. The activities of solvents alone were negated from the activities of the compounds. The data is presented as the mean ± standard error (*: p ˂ 0.05, **: p < 0.01, ***: p < 0.001 using student t-test; two tailed distribution). (B) Inhibition of excystation of B. mandrillaris cysts. B. mandrillaris cysts were incubated with 100 μM drugs and/or solvent in 24-well plates containing RPMI-1640 on HeLa monolayers for 24 h and number of viable trophozoites were then enumerated. Percentage inhibition of excystation was calculated by: [((RPMI trophozoite cell count − trophozoite cell count for sample)/RPMI trophozoite cell count) × 100)]. The activities of solvents alone were negated from the activities of the compounds. The data is presented as the mean ± standard error (*: p ˂ 0.05, **: p < 0.01, ***: p < 0.001 using student t-test; two tailed distribution).

B. mandrillaris cysts = assay: Excystation assay, B. mandrillaris cysts; format: cell-based; settings: Balamuthia mandrillaris, read-out: Inhibition of excystation of B. mandrillaris
Method: as §1, §2

HaCaT cells = format: cell-based, human
Method: Cytotoxic effects of the drugs were determined as previously described^21. Briefly, the cytotoxic activity of the drugs was investigated against HaCaT cells. […] The LDH assay protocol is based on an enzymatic reaction, i.e., LDH released from the cell oxidizes lactate to generate NADH, which then reacts with water-soluble tetrazolium salt (WST) to generate a yellow color. The intensity of the generated color correlates directly with the number of lyzed cells. Following this, 1% Triton X-100 was added to the positive control well and incubated the plate for 60 min at 37 °C. For negative control, human cells were grown in RPMI alone well. Then, an equal amount of cells supernatant (comprising LDH enzyme) from each well was combined with equal amount of LDH kit reagents and cytotoxicity was determined in proportion to LDH released from human cells using a spectrophotometer at 490 nm. The percentage LDH released was determined as follows: [(Absorbance of sample − Absorbance of control)/(Absorbance for total LDH release − Absorbance of control)] × 100 = percentage cytotoxicity.
Figure 4 Cytotoxic effects of compounds against human cells are depicted. Various concentrations of compounds were incubated with human cells for 24 h at 37 °C and 5% CO2. RPMI alone was used as negative control and triton X-100 was used as positive control. Data are presented as the mean ± standard error of 2 experiments conducted in duplicates.

[1] = system: B. mandrillaris trophozoites; assay: Amoebicidal assay against B. mandrillaris trophozoites (Trypan blue); format: cell-based, Balamuthia mandrillaris; settings: for EC50 / Concentration showing significant amoebicidal activity against B. mandrillaris: 24 h; for EC50: read-out: Half maximal effective concentration (EC50), B. mandrillaris; for Concentration showing significant amoebicidal activity against B. mandrillaris: compared to solvent control; for Amoebicidal activity against B. mandrillaris: summary in discussion, concentration not given
Method: (§3) Amoebicidal assays were performed as previously described. Briefly, 5 × 10^5 amoebae (N. fowleri and B. mandrillaris cells) were incubated with drugs and/or solvents in 24-well plates in RPMI-1640. Amoebae were incubated with RPMI-1640 for negative controls while DMSO and ethanol were used as solvent control. For the positive control, the anti-amoebic drug, 100 μM miltefosine was used. Plates were incubated at 37 °C and 5% CO2 for 24 h. Next, 0.1% Trypan blue was added to each well. […] The number of live cells (i.e., unstained) was counted using a haemocytometer to determine amoebicidal effects of various compounds. The data are representative of the mean ± standard error of several experiments performed in duplicate.
(§4) Figure 2 The amoebicidal activities of compounds against B. mandrillaris trophozoites. B. mandrillaris trophozoites were incubated with various concentrations of compounds for 24 h and trophozoites viability was determined using Trypan blue. Percentage amoebicidal activity was calculated by: [((RPMI cell count − cell count for sample)/RPMI cell count) × 100)]. The activities of solvents alone were negated from the activities of the compounds. The data is presented as the mean ± standard error (*: p < 0.05, **: p < 0.01, ***: p < 0.001 using student t-test; two tailed distribution).

N. fowleri trophozoites = assay: Amoebicidal assay against N. fowleri trophozoites (Trypan blue); format: cell-based, Naegleria fowleri; settings: for minimal effective concentration / EC50: Naegleria fowleri; for minimal effective concentration: read-out: Lowest concentration showing significant amoebicidal activity against N. fowleri; for EC50: read-out: Half maximal effective concentration (EC50), N. fowleri; for Amoebicidal activity against N. fowleri: summary in discussion, concentration not given
Method: as §3
as §4, with “Figure 1” for “Figure 2”, “against N. fowleri” for “against B. mandrillaris”, “trophozoites. N. fowleri” for “trophozoites. B. mandrillaris”

[2] = parameters: method as in PMID 29206032, PMID 32548431; settings: ref [24],[25],[26]; cited from earlier work
[3] = 100 μM, after negating effects of solvent alone
[4] = LDH release, 24 h, concentration not given
[5] = Balamuthia mandrillaris, trophozoites, Trypan blue
[6] = compared to solvent control, p < 0.05, 24 h
[7] = trophozoites, 24 h, Trypan blue

| Compound | inhibition at 100 µM (N. fowleri cysts; [3]) [%] | inhibition at 100 µM (B. mandrillaris cysts; [3]) [%] | Cytotoxicity against HaCaT cells (HaCaT cells; [4]) [%] | EC50 [1, 5] [µM] | Concentration showing significant amoebicidal activity against B. mandrillaris [1] [µM] | minimal effective concentration (N. fowleri trophozoites; [6]) [µM] | EC50 (N. fowleri trophozoites; [7]) [µM] | inhibition at 100 µM (N. fowleri cysts) [%] | inhibition at 100 µM (B. mandrillaris cysts) [%] | EC50 ([1]; Balamuthia mandrillaris) [µM] | Amoebicidal activity against B. mandrillaris [1] [%] | EC50 (N. fowleri trophozoites; 24 h) [µM] | Amoebicidal activity against N. fowleri (N. fowleri trophozoites) [%] | other results |
| --- | --- | --- | --- | --- | --- | --- | --- | --- | --- | --- | --- | --- | --- | --- |
| O=C(O)c1c(Cl)ccc2cc(Cl)cnc12 [Quinclorac, 3,7-Dichloro-8-quinolinecarboxylic acid] | 30 | 53 | 6 | 297 | 50 | ≥ 25 | 102 |  |  |  |  |  |  |  |
| OC1C(O)C(O)C(O)C(O)C1O (centres unmarked) [Inositol, cyclohexane-1,2,3,4,5,6-hexol] | 12 |  | 4 | 124 | 6.25 | ≥ 6.25 | 48.9 |  |  |  |  |  |  | BBB Permeability [2]: Present in brain |
| Cc1ccc2c(c1)C(Nc1nc(N)nc(C(C)F)n1)C(C)C2 (centres unmarked) [Indaziflam, N-(2,3-dihydro-2,6-dimethyl-1H-inden-1-yl)-6-(1-fluoroethyl)-1,3,5-triazine-2,4-diamine] |  |  | 4 |  | 50 |  |  | 68 | 52 | 99.8 | 52 | 53.7 | 62 | minimal effective concentration (N. fowleri trophozoites; 24 h): 12.5 µM |
| CN(C)C(=N)NC(=N)N [Metformin, 1-carbamimidamido-N,N-dimethylmethanimidamide] |  |  |  |  |  | 12.5 |  |  |  |  |  | 134 |  | Inhibition of excystation of N. fowleri (N. fowleri cysts; [3]): did not inhibit excystation |
| O=C(O)/C=C/c1ccccc1 [Trans-cinnamic acid, (E)-3-phenylprop-2-enoic acid] | 59 | 32 | 8 |  |  | ≥ 3.13 | 9.4 |  |  |  |  |  |  |  |
| Cellulase |  |  |  |  | 100 |  |  |  |  |  |  |  |  | Inhibition of excystation of N. fowleri (N. fowleri cysts; [3]): 39%; Cytotoxicity against HaCaT cells (HaCaT cells): did not exhibit any cytotoxicity; EC50 ([1]; trophozoites, Trypan blue): 106 µM; Lowest concentration showing significant amoebicidal activity against N. fowleri (N. fowleri trophozoites; [6]): did not show anti-N. fowleri effects at any concentration tested |
| N#Cc1c(Cl)cccc1Cl [Dichlobenil (2,6-DNBT), 2,6-dichlorobenzonitrile] |  |  |  |  | 25 |  |  | 45 | 45 | 39.6 | 60 | 24.2 | 69 | Cytotoxicity against HaCaT cells (HaCaT cells; human, 24 h): 3%; minimal effective concentration (N. fowleri trophozoites; 24 h): ≥ 6.25 µM |
| CN1C(=O)[C@](O)(Cc2cccc(O)c2)N(C)C(=O)[C@@H]1Cc1c[nH]c2cccc([N+](=O)[O-])c12 [Thaxtomin A, (3R,6S)-3-hydroxy-3-[(3-hydroxyphenyl)methyl]-1,4-dimethyl-6-[(4-nitro-1H-indol-3-yl)methyl]piperazine-2,5-dione] |  |  | 4 |  |  |  |  | 22 | < 10 | 39 |  | 94.7 |  | Lowest concentration showing significant amoebicidal activity against N. fowleri (N. fowleri trophozoites; [6]): did not show anti-N. fowleri effects at any concentration tested |
| CCNc1nc(Cl)nc(NC(C)(C)C)n1 [Terbuthylazine, 2-N-tert-butyl-6-chloro-4-N-ethyl-1,3,5-triazine-2,4-diamine] | 29 | < 10 | 2 | 62.5 |  | ≥ 3.13 | 7.5 |  |  |  | 61 |  | 63 |  |
